System: C33A cells
Test: Colony formation assay
Format: cell-based, human
Settings: 14 days culture, compared to blank control
Protocol: Cells treated with drugs were separately seeded in a 6-well plate and cultured continuously for 14 days. During this period, the culture medium was changed every 2-3 days. Once visible cell colonies formed, the culture medium was removed, and the cells were fixed with 4% paraformaldehyde for 30 minutes, followed by staining with 0.1% crystal violet for 30 minutes. Finally, the colonies were counted and photographed using an optical microscope.

SMILES: N.N.[Cl][Pt][Cl] [cisplatin]
- number of C33A colonies, single agent: decreased

From PMC10577221, “A cyclic peptide-based PROTAC induces intracellular degradation of palmitoyltransferase and potently decreases PD-L1 expression in human cervical cancer cells” (Frontiers in Immunology, 2023)
